# Data from patent US11096985B2, “Antimicrobial peptides, their variants and uses” (priority 2015, dated 2021).
# Where a SMILES comes first, the peptide text is derived from it. [ ]: non-standard residue; d: D form.
# How the values were obtained:
# [1] = tested on: clinical strains of Escherichia coli; assay: MIC, clinical strains of E. coli; assay type: cell-based; set-up: unit: μg/ml; details: microdilution, Muller Hinton broth-cation adjusted, 0.02% BSA, 0.2% acetic acid
# Outline: (§1)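 By broth microdilution, Chain peptides from 0.125 to 128 μg/ml were tested against clinical strains adjusted to 5.0×10^5 cfu/ml, with bacteria in MH broth and yeasts in Potato dextrose broth. After 20–24 h at 37 °C, the lowest peptide concentration without visible growth was scored as MIC.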
# [2] = tested on: clinical strains of Klebsiella pneumoniae; assay: MIC, clinical strains of K. pneumoniae; assay type: cell-based; set-up: unit: μg/ml; details: microdilution, Muller Hinton broth-cation adjusted, 0.02% BSA, 0.2% acetic acid
# Outline: as §1
# [3] = tested on: clinical strains of Pseudomonas aeruginosa; assay: MIC, clinical strains of P. aeruginosa; assay type: cell-based; set-up: unit: μg/ml; details: microdilution, Muller Hinton broth-cation adjusted, 0.02% BSA, 0.2% acetic acid
# Outline: as §1
# [4] = tested on: clinical strains of Serratia marcescens; assay: MIC, clinical strains of Serratia marcescens; assay type: cell-based; set-up: unit: µg/mL; details: microdilution, Muller Hinton broth-cation adjusted, 0.02% BSA, 0.2% acetic acid
# Outline: as §1
# [5] = tested on: clinical strains of Proteus mirabilis; assay: MIC, clinical strains of Proteus mirabilis; assay type: cell-based; set-up: unit: µg/mL; details: microdilution, Muller Hinton broth-cation adjusted, 0.02% BSA, 0.2% acetic acid
# Outline: as §1
# [6] = tested on: clinical strains of Enterobacter cloacae; assay: MIC, clinical strains of Enterobacter cloacae; assay type: cell-based; set-up: unit: μg/ml; details: microdilution, Muller Hinton broth-cation adjusted, 0.02% BSA, 0.2% acetic acid
# Outline: as §1
# [7] = tested on: clinical strains of Staphylococcus aureus; assay: MIC, clinical strains of S. aureus; assay type: cell-based; set-up: unit: μg/ml; details: microdilution, Muller Hinton broth-cation adjusted, 0.02% BSA, 0.2% acetic acid
# Outline: as §1
# [8] = tested on: clinical strains of Streptococcus pneumoniae; assay: MIC, clinical strains of Streptococcus pneumoniae; assay type: cell-based; set-up: unit: µg/mL; details: microdilution, Muller Hinton broth-cation adjusted, 0.02% BSA, 0.2% acetic acid
# Outline: as §1
# [9] = tested on: clinical strains of Acinetobacter baumannii; assay: MIC, clinical strains of Acinetobacter baumannii; assay type: cell-based; details: microdilution, Muller Hinton broth-cation adjusted, 0.02% BSA, 0.2% acetic acid
# Procedure: Minimum inhibition concentrations (MICs) were determined against Escherichia coli (ATCC 25922), Staphylococcus aureus (ATCC 25923), Klebsiella pneumoniae (ATCC 10031) and Pseudomonas aeruginosa (ATCC 27853). Also clinical strains of E. coli, K. pneumoniae, E. cloacae, P. aeruginosa, Serratia marcescens, Proteus mirabilis, S. pneumoniae, Acinetobacter baumannii, A. johnsonii and S. aureus were used for MICs assays. Additionally, clinical strains of yeast including Candida albicans, C. glabrata, C. parapsilosis and C. quillermondiae were used. The susceptibility of these microorganisms to Chain peptides were determined using micro broth dilution assay. Colonies of the respective microorganism from Muller Hinton (MH) agar plates incubated overnight were suspended in MH broth media and final concentration of microorganism was adjusted to 5.0×10^5 cfu/ml. An aliquot of 10 μl of each Chain peptide, or gentamicin, tetracycline as reference antibiotics were added in differing concentrations along with 90 μl of bacterial suspension to 96 well polypropylene plates and incubated at 37° C. for 20 to 24 hours. Concentrations of Chain peptides and reference antibiotics ranged from 0.125 to 128 μg/ml and the MICs were recorded as the lowest concentration with no visual growth of bacteria. Similarly, antifungal MICs were tested in Potato dextrose broth.
# Clinical strains of yeasts including Candida albicans, C. glabrata, C. parapsilosis and C. quillermondiae were also tested with the 12 Chain peptides. The minimum inhibitory concentration (MICs) varied between these peptides and are presented in Tables 4a, 4b, 4c and 5a, 5b, 5c. Peptides Chain 105, 201 and 308 are broad spectrum antimicrobials with MICs between 0.5-32 μg/ml against all the bacteria and yeasts tested, except Serratia marcescens and Proteus mirabilis, against which the MICs were between 64-128 μg/ml. Peptide Chain 306 has narrow spectrum activity against E.coli at 1 μg/ml and for the rest of the bacterial strains at >32 μg/ml (FIG. 10).
# [10] = tested on: clinical strains of Candida albicans; assay: MIC, clinical yeast strains, Candida albicans; assay type: cell-based; set-up: unit: μg/ml
# Outline: as §1
# [11] = tested on: clinical strains of C. glabrata; assay: MIC, clinical yeast strains, C. glabrata; assay type: cell-based, Candida glabrata; set-up: unit: μg/ml
# Outline: as §1
# [12] = tested on: clinical strains of C. parapsilosis; assay: MIC, clinical yeast strains, C. parapsilosis; assay type: cell-based, Candida parapsilosis; set-up: unit: μg/ml
# Outline: as §1
# [13] = tested on: clinical strains of C. quillermondiae; assay: MIC, clinical yeast strains, C. quillermondiae; assay type: cell-based; details: C. quillermondiae clinical yeast strain 1
# Outline: as §1
compound,measurement,setting,value
CC[C@@H](C)[C@@H](NC(=O)[C@@H](Cc1c[nH]c2ccccc12)NC(=O)[C@H](N)CCCCN)C(=O)N[C@@H](C(=O)N[C@H](Cc1c[nH]c2ccccc12)C(=O)N[C@H](CCCNC(=N)N)C(=O)N[C@H](Cc1c[nH]c2ccccc12)C(=O)N[C@H](CCCNC(=N)N)C(=O)N[C@H](Cc1ccccc1)C(=O)N[C@H](CCCCN)C(=O)N[C@H](CCCNC(=N)N)C(=O)O)C(C)C [Chain201D] (H-[dK][dW][dI][dV][dW][dR][dW][dR][dF][dK][dR]-OH),Minimum inhibitory concentration,[1]; Escherichia coli clinical strain 1,16
same,Minimum inhibitory concentration,[1]; Escherichia coli clinical strain 2,1
same,Minimum inhibitory concentration,[1]; Escherichia coli clinical strain 3,1
same,Minimum inhibitory concentration,[1]; Escherichia coli clinical strain 4,1
same,Minimum inhibitory concentration,[1]; Escherichia coli clinical strain 5,1
same,Minimum inhibitory concentration,[2]; Klebsiella pneumoniae clinical strain 1,2
same,Minimum inhibitory concentration,[2]; Klebsiella pneumoniae clinical strain 2,2
same,Minimum inhibitory concentration,[2]; Klebsiella pneumoniae clinical strain 3,4
same,Minimum inhibitory concentration,[2]; Klebsiella pneumoniae clinical strain 4,4
same,Minimum inhibitory concentration,[2]; Klebsiella pneumoniae clinical strain 5,2
same,Minimum inhibitory concentration,[3]; Pseudomonas aeruginosa clinical strain 1,4
same,Minimum inhibitory concentration,[3]; Pseudomonas aeruginosa clinical strain 2,4
same,Minimum inhibitory concentration,[3]; Pseudomonas aeruginosa clinical strain 3,4
same,Minimum inhibitory concentration,[3]; Pseudomonas aeruginosa clinical strain 4,2
same,Minimum inhibitory concentration,[3]; Pseudomonas aeruginosa clinical strain 5,2
same,Minimum inhibitory concentration,[4]; Serratia marcescens clinical strain 1,64
same,Minimum inhibitory concentration,[4]; Serratia marcescens clinical strain 2,64
same,Minimum inhibitory concentration,[4]; Serratia marcescens clinical strain 3,64
same,Minimum inhibitory concentration,[4]; Serratia marcescens clinical strain 4,64
same,Minimum inhibitory concentration,[4]; Serratia marcescens clinical strain 5,128
same,Minimum inhibitory concentration,[5]; Proteus mirabilis clinical strain 1,>128
same,Minimum inhibitory concentration,[5]; Proteus mirabilis clinical strain 2,32
same,Minimum inhibitory concentration,[5]; Proteus mirabilis clinical strain 3,64
same,Minimum inhibitory concentration,[5]; Proteus mirabilis clinical strain 4,>128
same,Minimum inhibitory concentration,[5]; Proteus mirabilis clinical strain 5,>128
same,Minimum inhibitory concentration,[6]; Enterobacter cloacae clinical strain 1,1
same,Minimum inhibitory concentration,[6]; Enterobacter cloacae clinical strain 2,2
same,Minimum inhibitory concentration,[6]; Enterobacter cloacae clinical strain 3,2
same,Minimum inhibitory concentration,[6]; Enterobacter cloacae clinical strain 4,2
same,Minimum inhibitory concentration,[6]; Enterobacter cloacae clinical strain 5,1
same,Minimum inhibitory concentration,[7]; Staphylococcus aureus clinical strain 1,1
same,Minimum inhibitory concentration,[7]; Staphylococcus aureus clinical strain 2,1
same,Minimum inhibitory concentration,[7]; Staphylococcus aureus clinical strain 3,1
same,Minimum inhibitory concentration,[7]; Staphylococcus aureus clinical strain 4,1
same,Minimum inhibitory concentration,[7]; Staphylococcus aureus clinical strain 5,1
same,Minimum inhibitory concentration,[8]; Streptococcus pneumoniae clinical strain 1,8
same,Minimum inhibitory concentration,[8]; Streptococcus pneumoniae clinical strain 2,4
same,Minimum inhibitory concentration,[8]; Streptococcus pneumoniae clinical strain 3,2
same,Minimum inhibitory concentration,[8]; Streptococcus pneumoniae clinical strain 4,4
same,Minimum inhibitory concentration,[8]; Streptococcus pneumoniae clinical strain 5,4
same,Minimum inhibitory concentration,[9]; Acinetobacter baumannii clinical strain 1,4
same,Minimum inhibitory concentration,[9]; Acinetobacter baumannii clinical strain 2,4
same,Minimum inhibitory concentration,[9]; Acinetobacter baumannii clinical strain 3,4
same,Minimum inhibitory concentration,[9]; Acinetobacter baumannii clinical strain 4,4
same,Minimum inhibitory concentration,[9]; Acinetobacter baumannii clinical strain 5,4
same,Minimum inhibitory concentration,[10]; Candida albicans clinical yeast strain 1,16
same,Minimum inhibitory concentration,[10]; Candida albicans clinical yeast strain 2,8
same,Minimum inhibitory concentration,[10]; Candida albicans clinical yeast strain 3,8
same,Minimum inhibitory concentration,[10]; Candida albicans clinical yeast strain 4,16
same,Minimum inhibitory concentration,[10]; Candida albicans clinical yeast strain 5,8
same,Minimum inhibitory concentration,[11]; C. glabrata clinical yeast strain 1,8
same,Minimum inhibitory concentration,[11]; C. glabrata clinical yeast strain 2,8
same,Minimum inhibitory concentration,[11]; C. glabrata clinical yeast strain 3,8
same,Minimum inhibitory concentration,[11]; C. glabrata clinical yeast strain 4,64
same,Minimum inhibitory concentration,[12]; C. parapsilosis clinical yeast strain 1,8
same,Minimum inhibitory concentration,[12]; C. parapsilosis clinical yeast strain 2,8
same,Minimum inhibitory concentration,[12]; C. parapsilosis clinical yeast strain 3,8
same,Minimum inhibitory concentration,[12]; C. parapsilosis clinical yeast strain 4,8
same,Minimum inhibitory concentration,[13],8
